Data as given in US20240018145A1, “[…]-DEPENDENT EN[…] TREATING OR […]” (priority 2020, published 2024).

The compounds below were run on FLU A (PR/8/34) (assay: Flu A Neuraminidase Antiviral Assay). Details: not given.
Format: cell-based

SMILES	EC50
CCN1C(=O)c2c(O)c(=O)ccn2N2C1CCCC2(C)c1cccc(C)n1 (single isomer, unassigned) [Compound 53A, 5-ethyl-7-hydroxy-1-methyl-1-(6-methylpyridin-2-yl)-1,2,3,4,4a,5-hexahydrodipyrido[1,2-b:2′,1′-f][1,2,4]triazine-6,8-dione]	> 810 nM
CCN1C(=O)c2c(O)c(=O)ccn2N2C1CCCC2(C)c1cccc(C)n1 (single isomer, unassigned) [Compound 53B, 5-ethyl-7-hydroxy-1-methyl-1-(6-methylpyridin-2-yl)-1,2,3,4,4a,5-hexahydrodipyrido[1,2-b:2′,1′-f][1,2,4]triazine-6,8-dione]	8.3 nM
Cc1cccc(C2(C)CCCC3N(CC(F)F)C(=O)c4c(O)c(=O)ccn4N32)n1 (single isomer, unassigned) [Compound 54A, 5-(2,2-difluoroethyl)-7-hydroxy-1-methyl-1-(6-methylpyridin-2-yl)-1,2,3,4,4a,5-hexahydrodipyrido[1,2-b:2′,1′-f][1,2,4]triazine-6,8-dione]	> 810 nM
Cc1cccc(C2(C)CCCC3N(CC(F)F)C(=O)c4c(O)c(=O)ccn4N32)n1 (single isomer, unassigned) [Compound 54B, 5-(2,2-difluoroethyl)-7-hydroxy-1-methyl-1-(6-methylpyridin-2-yl)-1,2,3,4,4a,5-hexahydrodipyrido[1,2-b:2′,1′-f][1,2,4]triazine-6,8-dione]	24.9 nM
CCN1C(=O)c2c(O)c(=O)ccn2N2C1CCCC2(C)c1cccc(C2CC2)n1 (single isomer, unassigned) [Compound 55A, 1-(6-cyclopropylpyridin-2-yl)-5-ethyl-7-hydroxy-1-methyl-1,2,3,4,4a,5-hexahydrodipyrido[1,2-b:2′,1′-f][1,2,4]triazine-6,8-dione]	> 810 nM
CCN1C(=O)c2c(O)c(=O)ccn2N2C1CCCC2(C)c1cccc(C2CC2)n1 (single isomer, unassigned) [Compound 55B, 1-(6-cyclopropylpyridin-2-yl)-5-ethyl-7-hydroxy-1-methyl-1,2,3,4,4a,5-hexahydrodipyrido[1,2-b:2′,1′-f][1,2,4]triazine-6,8-dione]	18.5 nM
O=C1c2c(O)c(=O)ccn2N2C(c3ccccc3)CCCC2N1CC1CC1 (single isomer, unassigned) [Compound 56A, 5-(cyclopropylmethyl)-7-hydroxy-1-phenyl-1,2,3,4,4a,5-hexahydrodipyrido[1,2-b:2′,1′-f][1,2,4]triazine-6,8-dione]	> 8100 nM
O=C1c2c(O)c(=O)ccn2N2C(c3ccccc3)CCCC2N1CC1CC1 (single isomer, unassigned) [Compound 56B, 5-(cyclopropylmethyl)-7-hydroxy-1-phenyl-1,2,3,4,4a,5-hexahydrodipyrido[1,2-b:2′,1′-f][1,2,4]triazine-6,8-dione]	6850 nM
O=C1c2c(O)c(=O)ccn2N2C(c3ccccc3)CCCC2N1CC1CC1 (single isomer, unassigned) [Compound 56C, 5-(cyclopropylmethyl)-7-hydroxy-1-phenyl-1,2,3,4,4a,5-hexahydrodipyrido[1,2-b:2′,1′-f][1,2,4]triazine-6,8-dione]	> 8100 nM
O=C1c2c(O)c(=O)ccn2N2C(c3ccccc3)CCCC2N1CC1CC1 (single isomer, unassigned) [Compound 56D, 5-(cyclopropylmethyl)-7-hydroxy-1-phenyl-1,2,3,4,4a,5-hexahydrodipyrido[1,2-b:2′,1′-f][1,2,4]triazine-6,8-dione]	37.7 nM
CN1C(=O)c2c(O)c(=O)ccn2N2C(c3ccccc3)CCCCC12 (single isomer, unassigned) [Compound 57A, 4-hydroxy-6-methyl-11-phenyl-6a,7,8,9,10,11-hexahydro-3H-pyrido[1′,2′:1,6][1,2,4]triazino[2,3-a]azepine-3,5(6H)-dione]	95.5 nM
CN1C(=O)c2c(O)c(=O)ccn2N2C(c3ccccc3)CCCCC12 (single isomer, unassigned) [Compound 57B, 4-hydroxy-6-methyl-11-phenyl-6a,7,8,9,10,11-hexahydro-3H-pyrido[1′,2′:1,6][1,2,4]triazino[2,3-a]azepine-3,5(6H)-dione]	> 8100 nM
CN1C(=O)c2c(O)c(=O)ccn2N2C(c3ccccc3)CCCC12C (single isomer, unassigned) [Compound 59A, 7-hydroxy-4a,5-dimethyl-1-phenyl-1,2,3,4,4a,5-hexahydrodipyrido[1,2-b:2′,1′-f][1,2,4]triazine-6,8-dione]	7280 nM
CN1C(=O)c2c(O)c(=O)ccn2N2C(c3ccccc3)CCCC12C (single isomer, unassigned) [Compound 59B, 7-hydroxy-4a,5-dimethyl-1-phenyl-1,2,3,4,4a,5-hexahydrodipyrido[1,2-b:2′,1′-f][1,2,4]triazine-6,8-dione]	12.1 nM
CN1C(=O)c2c(O)c(=O)ccn2N2C1CCC2(C)c1ccccc1 (single isomer, unassigned) [Compound 61A, 6-hydroxy-1,4-dimethyl-1-phenyl-2,3,3a,4-tetrahydro-1H-pyrido[2,1-f]pyrrolo[1,2-b][1,2,4]triazine-5,7-dione]	122 nM
CN1C(=O)c2c(O)c(=O)ccn2N2C1CCC2(C)c1ccccc1 (single isomer, unassigned) [Compound 61B, 6-hydroxy-1,4-dimethyl-1-phenyl-2,3,3a,4-tetrahydro-1H-pyrido[2,1-f]pyrrolo[1,2-b][1,2,4]triazine-5,7-dione]	2730 nM
CCC1(c2ccccc2)CCC2N(C)C(=O)c3c(O)c(=O)ccn3N21 (single isomer, unassigned) [Compound 62B, 1-ethyl-6-hydroxy-4-methyl-1-phenyl-2,3,3a,4-tetrahydro-1H-pyrido[2,1-f]pyrrolo[1,2-b][1,2,4]triazine-5,7-dione]	> 8100 nM
CCC1(c2ccccc2)CCC2N(C)C(=O)c3c(O)c(=O)ccn3N21 (single isomer, unassigned) [Compound 62C, 1-ethyl-6-hydroxy-4-methyl-1-phenyl-2,3,3a,4-tetrahydro-1H-pyrido[2,1-f]pyrrolo[1,2-b][1,2,4]triazine-5,7-dione]	7490 nM
CCC1(c2ccccc2)CCC2N(C)C(=O)c3c(O)c(=O)ccn3N21 (single isomer, unassigned) [Compound 62D, 1-ethyl-6-hydroxy-4-methyl-1-phenyl-2,3,3a,4-tetrahydro-1H-pyrido[2,1-f]pyrrolo[1,2-b][1,2,4]triazine-5,7-dione]	7970 nM
CN1C(=O)c2c(O)c(=O)ccn2N2C1CCC2(C)c1ccccc1Cl (single isomer, unassigned) [Compound 63A, 1-(2-chlorophenyl)-6-hydroxy-1,4-dimethyl-2,3,3a,4-tetrahydro-1H-pyrido[2,1-f]pyrrolo[1,2-b][1,2,4]triazine-5,7-dione]	> 8100 nM
CN1C(=O)c2c(O)c(=O)ccn2N2C1CCC2(C)c1ccccc1Cl (single isomer, unassigned) [Compound 63B, 1-(2-chlorophenyl)-6-hydroxy-1,4-dimethyl-2,3,3a,4-tetrahydro-1H-pyrido[2,1-f]pyrrolo[1,2-b][1,2,4]triazine-5,7-dione]	160 nM
CN1C(=O)c2c(O)c(=O)ccn2N2C1CCC1(CCC(F)(F)C1)C2c1ccccc1 (single isomer, unassigned) [Compound 68B, 3,3-difluoro-7′-hydroxy-5′-methyl-1′-phenyl-3′,4′,4a′,5′-tetrahydro-1′H-spiro[cyclopentane-1,2′-dipyrido[1,2-b:2′,1′-f][1,2,4]triazine]-6′,8′-dione]	> 810 nM
CN1C(=O)c2c(O)c(=O)ccn2N2C1CCC1(CCC(F)(F)C1)C2c1ccccc1 (single isomer, unassigned) [Compound 68C, 3,3-difluoro-7′-hydroxy-5′-methyl-1′-phenyl-3′,4′,4a′,5′-tetrahydro-1′H-spiro[cyclopentane-1,2′-dipyrido[1,2-b:2′,1′-f][1,2,4]triazine]-6′,8′-dione]	11.4 nM
CN1C(=O)c2c(O)c(=O)ccn2N2C1CCC1(CCC(F)(F)C1)C2c1ccccc1 (single isomer, unassigned) [Compound 68D, 3,3-difluoro-7′-hydroxy-5′-methyl-1′-phenyl-3′,4′,4a′,5′-tetrahydro-1′H-spiro[cyclopentane-1,2′-dipyrido[1,2-b:2′,1′-f][1,2,4]triazine]-6′,8′-dione]	11.8 nM
Cc1ccccc1C1N2C(CCC13CC1C(C3)C1(F)F)N(C)C(=O)c1c(O)c(=O)ccn12 (single isomer, unassigned) [Compound 69A, 6,6-difluoro-7′-hydroxy-5′-methyl-1′-(o-tolyl)-3′,4′,4a′,5′-tetrahydro-1′H-spiro[bicyclo[3.1.0]hexane-3,2′-dipyrido[1,2-b:2′,1′-f][1,2,4]triazine]-6′,8′-dione]	2.3 nM
Cc1ccccc1C1N2C(CCC13CC1C(C3)C1(F)F)N(C)C(=O)c1c(O)c(=O)ccn12 (single isomer, unassigned) [Compound 69B, 6,6-difluoro-7′-hydroxy-5′-methyl-1′-(o-tolyl)-3′,4′,4a′,5′-tetrahydro-1′H-spiro[bicyclo[3.1.0]hexane-3,2′-dipyrido[1,2-b:2′,1′-f][1,2,4]triazine]-6′,8′-dione]	57 nM
Cc1ccccc1C1N2C(CCC13CC1C(C3)C1(F)F)N(C)C(=O)c1c(O)c(=O)ccn12 (single isomer, unassigned) [Compound 69C, 6,6-difluoro-7′-hydroxy-5′-methyl-1′-(o-tolyl)-3′,4′,4a′,5′-tetrahydro-1′H-spiro[bicyclo[3.1.0]hexane-3,2′-dipyrido[1,2-b:2′,1′-f][1,2,4]triazine]-6′,8′-dione]	88.4 nM

Same assay, conditions: MDCK, 48 h

SMILES	EC50
CN1C(=O)c2c(O)c(=O)ccn2N2C(c3ccccc3)CCC12 (single isomer, unassigned) [Compound 60A, 6-hydroxy-4-methyl-1-phenyl-2,3,3a,4-tetrahydro-1H-pyrido[2,1-f]pyrrolo[1,2-b][1,2,4]triazine-5,7-dione]	> 8100 nM
CN1C(=O)c2c(O)c(=O)ccn2N2C1CCC1(CCC(F)(F)C1)C2c1ccccc1 (single isomer, unassigned) [Compound 68A, 3,3-difluoro-7′-hydroxy-5′-methyl-1′-phenyl-3′,4′,4a′,5′-tetrahydro-1′H-spiro[cyclopentane-1,2′-dipyrido[1,2-b:2′,1′-f][1,2,4]triazine]-6′,8′-dione]	349 nM
